Measurements: patent publication US4552882A, “7-(1-Pyrrolyl) derivatives of 1-ethyl-1,4-dihydro-4-oxoquinoline-3-carboxylic acids and 1-ethyl-1,4-dihydro-4-oxo-1,8-naphthyridine-3-carboxylic acids and their use as antimicrobial agents” (Provesan, SA, priority 1983, dated 1985)
Values after ≈ are worked out from the molar mass of the structure shown.

Experiments:
Test in all cases: MIC in vitro
Format in all cases: cell-based
[1] = system: Streptococcus faecalis ATCC 10541; conditions: Enterococcus faecalis, ATCC10541, Dextrose agar, 37° C., 20 hours
Excerpt: (§1) (G. L. Daquet and Y. A. Chabbect, Techniques en bacteriologie (Bacteriological techniques), vol. 3, Flammarion Medecine Sciences, Paris, 1972 and W. B. Hugo and A. D. Rusell, Pharmaceutical Microbiology, Blackwell Scientific Publications, London, (1977)). Antibiotic medium no. 1 (seed agar) (Oxoid CM 327) Tryptone-soya broth (Oxoid CM 129) Ringer's physiological solution 1/4 (oxoid BR 52) Dextrose agar (BBL-11165) 0.1 N NaOH "Streptococcus faecalis" ATCC 10541 Each of the microorganisms is seeded by streaking in tubes of Antibiotic medium No. 1 (seed agar), which are then incubated at 37° C. for 20 hours. Using a culture loop, the cultures are then seeded in tryptone-soyabroth and incubated at 37° C. for 20 hours. The culture obtained is diluted to 1/4 with Ringer's physiological solution, so as to obtain a standardized suspension of 10^7 -10^9 cfu/ml for each organism. Starting from a solution of 1,000 μg/ml in 0.1 N NaOH, each product is diluted in Dextrose agar (previously melted and maintained at 50° C.), with successive dilutions so as to obtain the following concentrations: 64--32--16--8--4--2--1--0.5--0.25--0.125 μg of derivative/ml medium. For each product, the solution of each concentration is subsequently distributed into Petri dishes 10 cm in diameter, with 10 ml of medium per dish and the same number of dishes as microorganisms to be tested. As soon as the medium has cooled, the dishes are seeded with the inoculations using 0.4 ml of inoculation per dish. They are spread with a Driglasky loop and the supernatant is removed. The seeded dishes are incubated at 37° C. for 20 hours.

[2] = system: Escherichia coli ATCC 10536; conditions: ATCC10536, Dextrose agar, 37° C., 20 hours
Method: as §1, with “"Escherichia coli"” for “"Streptococcus faecalis"”, “10536” for “10541”

[3] = system: Micrococus flavus ATCC 10240; conditions: Micrococcus flavus, ATCC10240, Dextrose agar, 37° C., 20 hours
Method: as §1, with “"Micrococcus flavus"” for “"Streptococcus faecalis"”, “10240” for “10541”

| Structure (SMILES) | MIC [1] | MIC [2] | MIC [3] |
| --- | --- | --- | --- |
| CCn1cc(C(=O)O)c(=O)c2ccc(-n3cccc3)cc21 [Example 1, 7-(1-pyrrolyl)-1-ethyl-1,4-dihydro-4-oxo-3-quinolinecarboxylic acid] | 16 µg/mL (≈ 56.7 µM) | 4 µg/mL (≈ 14.2 µM) | 16 µg/mL (≈ 56.7 µM) |
| CCn1cc(C(=O)O)c(=O)c2cc(F)c(-n3cccc3)cc21 [Example 2, 6-fluoro-7-(1-pyrrolyl)-1-ethyl-1,4-dihydro-4-oxo-3-quinolinecarboxylic acid] | 1 µg/mL (≈ 3.33 µM) | 1 µg/mL (≈ 3.33 µM) | 8 µg/mL (≈ 26.6 µM) |
| CCn1cc(C(=O)O)c(=O)c2ccc(-n3cccc3)nc21 [Example 3, 1-ethyl-1,4-dihydro-4-oxo-7-(1-pyrrolyl)-1,8-naphthyridine-3-carboxylic acid] | 32 µg/mL (≈ 113 µM) | 8 µg/mL (≈ 28.2 µM) | 4 µg/mL (≈ 14.1 µM) |
| CCn1cc(C(=O)O)c(=O)c2cc(F)c(-n3cccc3)nc21 [Example 4, 1-ethyl-1,4-dihydro-4-oxo-6-fluoro-7-(1-pyrrolyl)-1,8-naphthyridine-3-carboxylic acid] | 8 µg/mL (≈ 26.6 µM) | 0.12 µg/mL (≈ 0.398 µM) | 1 µg/mL (≈ 3.32 µM) |
| CCn1cc(C(=O)O)c(=O)c2cnc(N3CCNCC3)nc21 [Pipemidic acid, reference compound] | > 64 µg/mL | 2 µg/mL (≈ 6.59 µM) | > 64 µg/mL |
